The record followed here is patent US20150328220A1, “METHODS OF TREATING CHRONIC KIDNEY DISEASE CHARACTERIZED BY MACROALBUMINURIA” (Concert Pharmaceuticals, Inc., priority 2014, published 2015).

Common to all, as to assay type: in vivo, human
Assay [1] deals with patients with type 2 diabetic kidney disease and macroalbuminuria. As to the kind of experiment: Phase 2 placebo-controlled clinical trial, 48 weeks: serum creatinine levels. Conditions: for patients who experienced a 50% or greater increase in serum creatinine levels: after 48 weeks. As for the experimental part:
(§1) A Phase 2 placebo-controlled clinical trial of Compound (V) was conducted in patients with type 2 diabetic kidney disease and macroalbuminuria. All patients enrolled in the clinical trial were concurrently treated with angiotensin modulators. The purpose of the trial was to compare Compound (V) to placebo in terms of safety and efficacy with respect to measures of renal function such as UACR, serum creatinine levels, and estimated glomerular filtration rate.
(§2) The clinical trial consists of three parts, two of which were completed and a third part that is on-going. Part 1 was a double-blind, parallel, two-arm, placebo-controlled study evaluating the safety and efficacy of 600 mg of Compound (V) twice daily for 24 weeks. 182 patients were enrolled in this first part of the trial and 151 patients completed Part 1. Part 2 was a blinded 24-week extension study in which all patients who completed Part 1 were eligible to continue receiving 600 mg of Compound (V) or placebo twice daily. 143 patients were enrolled in this part of the clinical trial and have completed dosing. 123 of the 143 patients that were enrolled in Part 2 of the clinical trial completed Part 2. The combined 48 weeks of data from Parts 1 and 2 of the clinical trial have been analyzed. 102 patients enrolled in Part 3 which is a 48 week open-label extension study that is on-going. All patients who completed Part 2 were eligible to receive 600 mg of Compound (V) twice daily.
The key criteria for patients to be included in the clinical trial were (a) eGFR from 23 to 89 mL/min/1.73 m^2, a measure of kidney function which indicates mild to moderately severe type 2 diabetic kidney disease; (b) having been on a stable angiotensin modulation regimen for a minimum of four weeks prior to initiating screening and nine weeks prior to initiating dosing; (c) blood pressure less than or equal to 145/90 mm Hg; (d) glycosylated hemoglobin A1c (HbA1c) less than or equal to 10.5%, and (e) UACR greater than or equal to 200 mg/g in male patients and 300 mg/g in female patients, ratios of albumin to creatinine that are indicative of substantial kidney damage in men and women, but not more than 5,000 mg/g, a ratio indicative of severe kidney disease.

Assay [2] has as its system urinary fibronectin. As to the kind of experiment: Phase 2 placebo-controlled clinical trial, 48 weeks: urinary fibronectin (fibrotic biomarker). As for the experimental part: as §1
as §2, with “All patients who completed Part 2 were eligible to receive 600 mg of Compound (V) twice daily.” left out

For assay [3], the system named is plasma collagen IV. As to the kind of experiment: Phase 2 placebo-controlled clinical trial, 48 weeks: plasma collagen IV (fibrotic biomarker). Conditions: week 48 (FIG. 3). The procedure:
as §1
as §2, with “All patients who completed Part 2 were eligible to receive 600 mg of Compound (V) twice daily.” left out

For `[2H]C([2H])([2H])[C@H](O)C([2H])([2H])CCCn1c(=O)c2c(ncn2C)n(C)c1=O` [Compound (V)], the “increase in mean serum creatinine level over the 48 weeks of treatment” value in assay [1] (600 mg twice daily, 48 weeks, 65 patients, overall population, preliminary analysis) is 0.13 mg/dL. The “patients who experienced a 50% or greater increase in serum creatinine levels” value worked out at 1.5% in assay [1] (overall population, one out of 65 patients, p=0.026 vs placebo, post-hoc) and 3.1% in assay [1] (subpopulation having UACR greater than 850 mg/g, one out of 31 patients, p<0.0409 vs placebo). The “improvement in serum creatinine increase as compared to placebo” value in assay [1] (at 48 weeks, 600 mg twice daily, p=0.057 two-tailed) is on record as 38%. The “less urine fibronectin versus placebo” value in assay [2] (week 48, overall population (FIG. 1)) was found to be 59%. Besides, the “decrease in urine fibronectin relative to placebo” value in assay [2] (week 48, subpopulation having UACR greater than 850 mg/g, p<0.01 (FIG. 2)) turned out to be 73%. Further, the “less plasma collagen IV versus placebo” value in assay [3] turned out to be 18%.
